How the values were obtained:
[1] = molecular target: G1 to S Phase Transition 1 (GSPT1) (Homo sapiens, UniProt P15170); test: Targeted cell-based assay for GSPT1; conditions: up to 10 μM
TMD8 = test: Anti-proliferative activity, 96 hours; conditions: Homo sapiens, TMD8, 96 h
[2] = system: germinal center B-cell like DLBCL lines; test: Anti-cancer activity in GCB-DLBCL cell lines; format: cell-based; conditions: six of eleven responsive, read-out: mean IC50 amongst the responsive lines
[3] = molecular target: T1, cereblon-NanoLuc fusion protein in 293T cells (Homo sapiens, UniProt Q96SW2); test: In-cell cereblon competition (NanoBRET tracer displacement); format: cell-based; conditions: 2 hours at 37° C.; read-out: IC50, 50% of the tracer displaced
T1 construct: expressed in transfected cells; host or cells: 293T cells, lentiviral

SU-DHL-5 = test: Anti-proliferative activity, 96 hours; conditions: Homo sapiens, SU-DHL-5, 96 h
[4] = Plasma PK and interconversion in monkeys; format: in vivo; conditions: monkey, Compound 1 60 μg/kg or 100 μg/kg PO
Experimental: Compound 1 was administered to a rat at a concentration of 30 mg/kg PO and monkeys at a concentration of either 60 μg/kg or 100 μg/kg PO. At the indicated timepoints shown in FIG. 25A and FIG. 25B, plasma samples were collected and the Cmax, half-life, and AUC0-inf were determined for both Compound 1 and a metabolite of Compound 1, Compound 14. The percent of Compound 14 was also determined (Table 13). PK values dose normalized to 1 mg/kg. FIG. 25A is a graph measuring the concentration of Compound 1 or Compound 14 over the course of 24 hours in monkeys administered 100 μg/kg or 60 μg/kg of Compound 1. FIG. 25B is a graph measuring the concentration of Compound 1 or Compound 14 over the course of 24 hours in a rat administered 30 mg/kg of Compound 1.

OCI-LY10 = test: Anti-proliferative activity, 96 hours; conditions: Homo sapiens, OCI-Ly10, 96 h
SR = test: Anti-proliferative activity, 96 hours; conditions: Homo sapiens
[5] = system: Caspase 3/7 activity in TMD8 cells; test: Apoptosis induction, Caspase 3/7 activity in TMD8 cells
Mino = test: Anti-proliferative activity, 96 hours; conditions: Homo sapiens
HuT 102 = test: Anti-proliferative activity, 96 hours; conditions: HuT-102, 96 h

O=C1CC[C@H](N2C(=O)c3cccc4c(Cc5ccc(CN6CCOCC6)cc5)ccc2c34)C(=O)N1 (single isomer, unassigned) [Compound 1]
effect on GSPT1 [1]: no significant effect
IC50 (TMD8): 0.078 nM
IC50 [2]: 12 nM
IC50 [3]: 0.4 nM
IC50 (SU-DHL-5): 6.37 nM
AUC(0-inf) ([4]; dose normalized to 1 mg/kg): 1.28 µg·h/mL
Cmax ([4]; dose normalized to 1 mg/kg): 0.083 µg/mL
half-life ([4]; read-out: T ½ (converted)): 9 h
IC50 (OCI-LY10): 0.03 nM
IC50 (SR): 16.2 nM
Maximum caspase 3/7 activity ([5]; 48 hr): > 8 fold
activity level of caspase-3 and caspase-7 increased ([5]; FIG. 51): more than 800%
EC50 ([5]; Homo sapiens, TMD8, 48 h, read-out: EC50, caspase 3/7 activity): 2.7 nM
IC50 (Mino): 0.194 nM
IC50 (HuT 102): 15.4 nM

Reference: patent US20230190760A1, “ADVANTAGEOUS THERAPIES FOR DISORDERS MEDIATED BY IKAROS OR AIOLOS” (C4 Therapeutics, Inc., priority 2020, published 2023)
